Columns and labels:
[1] = tested on: IL-6; assay: Inhibition of R848-induced IL-6 release in human PBMCs, IL-6 ELISA; type: cell-based; conditions: PBMC, compound 24 hours, then R848 10 µg/mL 5 hours
Experimental: Example 3: Detection of inhibition of R848-induced IL-6 release
Cryopreserved human PBMCs (Milestone® Biotechnologies, PB010C-W) were thawed and resuspended in RPMI-1640 medium (Gibco, 22400-105) supplemented with 10% fetal bovine serum (Gibco, 10099-141), 100 U/mL penicillin, and 100 µg/mL streptomycin (Gibco, 15140122). Subsequently, 190 µL of the PBMC suspension was added to each well of 96-well clear cell culture plates (Corning, 3599) to achieve a density of 1×10^5 cells/well. The cell plates were incubated at 37°C in a 5% CO2 incubator for 30 minutes. Then, 5 µL of diluted compound solution was added to the corresponding cell-seeded wells to achieve final concentrations ranging from 0.046 to 3,000 nM. The final concentration of DMSO was 0.1%. After the compound-treated cell plate was incubated at 37°C in a 5% CO2 incubator for 24 hours, 5 µL of R848 (MCE, HY-13740) was added to achieve a final concentration of 10 µg/mL. The cell plates were incubated again at 37°C in a 5% CO2 incubator for 5 hours, then centrifuged at 1,000 rpm for 1 minute. 100 µL of the cell supernatant from each well was transferred to a new 96-well clear cell culture plate for IL-6 concentration testing.
Interleukin-6 (IL-6) ELISA assay
The IL-6 concentration in the supernatant of R848-induced human PBMCs was determined using a Human IL-6 (interleukin-6) ELISA KIT (4Bio, CHE0009-048). IL-6 standard solutions at different concentrations, ranging from 3.9 to 250 pg/mL, were prepared according to the manufacturer's instructions. 100 µL of each concentration of the IL-6 standard solution and the pre-diluted test cell supernatant samples were added separately to anti-IL-6 antibody-coated and blocked clear 96-well plates, followed by incubation at 37°C for 1.5 hours. According to the product instructions, the plates were washed, 100 µL of biotinylated antibody was added, and the plates were incubated at 37°C for 1 hour. The plates were washed, 100 µL of enzyme conjugate working solution was added. The plates were incubated at 37°C for 30 minutes, and then washed. 100 µL of chromogenic substrate was added, and the plates were incubated at 37°C for 10-20 minutes. The reaction was terminated by adding 100 µL of stop solution. After the reaction, the OD value at 450 nm was measured in absorbance mode using an Envision microplate reader (PerkinElmer). A standard curve was plotted using the corrected OD values of the various concentrations of IL-6 standard solutions. The IL-6 concentration in each cell supernatant was then determined on the basis of the corresponding concentration for the corrected OD value of the test sample on the standard curve. […] Subsequently, the IC50 value of the compound was calculated by performing non-linear curve fitting of concentration versus inhibition rate using GraphPad Prism 9.

[2] = target: T1, IRAK4 (Homo sapiens, UniProt Q9NWZ3); assay: Degradation of IRAK4 in THP1 cells, Western blot; type: cell-based; parameters: Degradation of IRAK4 in THP1 by compound; host or cells: THP-1; conditions: THP-1 cells, 24 hours of incubation; for DC50: IRAK4 protein by Western blot, read-out: DC50; for Dmax: maximum degradation rate, read-out: Dmax
T1 sequence (Q9NWZ3 1-460): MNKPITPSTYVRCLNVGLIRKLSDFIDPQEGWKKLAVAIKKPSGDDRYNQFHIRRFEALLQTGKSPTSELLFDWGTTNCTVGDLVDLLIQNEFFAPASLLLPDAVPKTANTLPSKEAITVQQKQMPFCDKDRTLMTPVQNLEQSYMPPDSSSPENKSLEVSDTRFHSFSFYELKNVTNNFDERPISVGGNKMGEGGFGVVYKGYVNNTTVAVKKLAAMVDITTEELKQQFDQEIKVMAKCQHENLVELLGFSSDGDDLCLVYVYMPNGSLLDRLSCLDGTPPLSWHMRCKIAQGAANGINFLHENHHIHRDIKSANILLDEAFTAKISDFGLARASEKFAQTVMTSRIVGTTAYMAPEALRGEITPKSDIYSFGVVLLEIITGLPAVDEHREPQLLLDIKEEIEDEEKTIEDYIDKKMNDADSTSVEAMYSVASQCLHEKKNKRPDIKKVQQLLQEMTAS
Procedure, shortened: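 Degradation rate derived from densitometry of IRAK4 bands versus DMSO-treated controls. Read-out: anti-IRAK4 immunoblot (10% gel, 40 μg total protein per lane, BCA-normalised) of lysates from THP1 cells incubated with compound for 24 h.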

[3] = Pharmacokinetic detection in rats after intravenous injection and oral administration; type: in vivo, Sprague-Dawley (SD) rats; conditions: rat; for AUC / Cmax / half-life: in vivo, oral administration
Experimental: Example 4. Pharmacokinetic detection
This study was designed to investigate the pharmacokinetic properties of the compounds in rats following intravenous injection and oral administration.
Experimental protocol: Six healthy male Sprague-Dawley (SD) rats were used for each compound, randomly divided into two groups of three animals each, with body weights ranging from 180-220 g. The rats were fasted overnight (10-14 hours) prior to administration, with free access to water, and food was restored 4 hours after administration. The compounds were formulated in a vehicle consisting of 5% DMSO + 10% solutol + 85% physiological saline (w/v). […] For A170, A177, and A180, the intravenous injection group received a dose of 1 mg/kg with an administration volume of 1 mL/kg, and the oral administration group received a dose of 5 mg/kg with an administration volume of 5 mL/kg. Blank blood samples were collected prior to administration. After administration, 0.2 mL of blood was collected from the jugular vein or other suitable methods at predetermined time points (0.083 h, 0.25 h, 0.5 h, 1 h, 2 h, 4 h, 8 h, 24 h) into EDTA-K2 anticoagulant tubes, and plasma was separated by centrifugation at 6800 g for 6 minutes. After the experiment, the concentration of the compound in plasma was quantitatively detected using liquid chromatography-tandem mass spectrometry (LCMS/MS). Pharmacokinetic parameters were calculated on the basis of the plasma concentration data at different time points using Phoenix WinNonlin version 8.3.5.

[4] = target: T1, IRAK4; conditions: Phase I clinical studies in hidradenitis suppurativa and atopic dermatitis; cited from earlier work
[5] = oral 10 mg/kg, intravenous 2 mg/kg
[6] = oral 5 mg/kg, intravenous 1 mg/kg

| SMILES | IC50 [1] [nM] | DC50 [2] [nM] | Dmax [2] [%] | AUC ([3]; 10 mg/kg) [ng·h/mL] | Cmax ([3]; 10 mg/kg) [ng/mL] | half-life ([3]; 10 mg/kg) [h] | F [3, 5] [%] | AUC ([3]; 5 mg/kg) [ng·h/mL] | Cmax ([3]; 5 mg/kg) [ng/mL] | half-life ([3]; 5 mg/kg) [h] | F [3, 6] [%] | safety and tolerability [4] |
| --- | --- | --- | --- | --- | --- | --- | --- | --- | --- | --- | --- | --- |
| NC(=O)c1nn(-c2ccc(N3CCN(CC4CCN(c5ccc6c(c5)CN(C5CCC(=O)NC5=O)C6=O)CC4)CC3)cc2)cc1NC(=O)c1cccc(C(F)(F)F)n1 (stereo not shown) [Compound A169] | < 10 | < 100 | > 60 | 3520 | 408 | 5 | 16 |  |  |  |  |  |
| Cn1c(=O)n(C2CCC(=O)NC2=O)c2cccc(N3CCC(CN4CCN(c5ccc(-n6cc(NC(=O)c7cccc(C(F)(F)F)n7)c(C(N)=O)n6)cc5)CC4)CC3)c21 (stereo not shown) [Compound A178] | < 10 | < 100 | > 60 | 6560 | 593 | 15 | 30 |  |  |  |  |  |
| NC(=O)c1nn(-c2ccc(N3CCN(CC4CCN(c5ccc(NC6CCC(=O)NC6=O)cc5F)CC4)CC3)cc2)cc1NC(=O)c1cccc(C(F)(F)F)n1 (stereo not shown) [Compound A195] | < 10 |  |  | 19300 | 1250 | 15 | 52 |  |  |  |  |  |
| Cn1c(=O)n(C2CCC(=O)NC2=O)c2cccc(C#CCOC3CCN(CC4CCC(n5cc(NC(=O)c6cnn7ccc(N8CC9CC8CO9)nc67)c(C(F)F)n5)CC4)CC3)c21 (stereo not shown) [Control compound 1, reference compound] |  |  |  | 428 | 98 | 4 | 8 |  |  |  |  |  |
| Cn1c(=O)n(C2CCC(=O)NC2=O)c2ccc(N3CCC(CN4CCN(c5ccc(-n6cc(NC(=O)c7cccc(C(F)(F)F)n7)c(C(N)=O)n6)cc5)CC4)CC3)cc21 (stereo not shown) [Compound A177] | < 10 | < 100 | > 60 |  |  |  |  | 1230 | 120 | 8 | 8 |  |
| Cn1c(=O)n(C2CCC(=O)NC2=O)c2cccc(C#CCOC3CCN(C[C@H]4CC[C@H](n5cc(NC(=O)c6cnn7ccc(N8C[C@H]9C[C@@H]8CO9)nc67)c(C(F)F)n5)CC4)CC3)c21 (stereo partly shown) [KT-474] |  |  |  |  |  |  |  |  |  |  |  | favorable safety and tolerability |
| NC(=O)c1nn(-c2ccc(N3CCN(CC4CCN(c5ccc6c(c5)CN(C5CCC(=O)NC5=O)C6=O)CC4(F)F)CC3)cc2)cc1NC(=O)c1cccc(C(F)(F)F)n1 (stereo not shown) [Compound A170] | < 10 | < 100 | > 60 |  |  |  |  | 2160 | 285 | 7 | 28 |  |
| NC(=O)c1nn(-c2ccc(N3CCN(CCN4CCN(c5ccc6c(c5)C(=O)N(C5CCC(=O)NC5=O)C6=O)CC4)CC3)cc2)cc1NC(=O)c1cccc(C(F)(F)F)n1 (stereo not shown) [Compound A173] | < 10 |  |  | 1130 | 107 | 21 | 18 |  |  |  |  |  |
| Cn1c(=O)n(C2CCC(=O)NC2=O)c2cccc(N3CCC4(CCN(Cc5ccc(-n6cc(NC(=O)c7cccc(C(F)(F)F)n7)c(C(N)=O)n6)cc5)C4)CC3)c21 (stereo not shown) [Compound A140] | < 10 | < 100 | > 60 |  |  |  |  |  |  |  |  |  |
| NC(=O)c1nn(-c2ccc(N3CCN(CC4CCN(c5ccc6c(c5)C(=O)N(C5CCC(=O)NC5=O)C6=O)C4)CC3)cc2)cc1NC(=O)c1cccc(C(F)(F)F)n1 (stereo not shown) [Compound A227] | < 10 | < 100 | > 60 |  |  |  |  |  |  |  |  |  |

From patent EP4763839A1 (Pamplona Therapeutics (Shenzhen) Co., Ltd., priority 2023, dated 2025)
